Assay [1] relates to differentiated L6-myotubes. Put plainly: cAMP production relative to isoprenaline (Biological example 2 of WO 2019/053427). It is filed as cell-based. The conditions noted are these: 0.25 h, compound at 10 μM, activity relative to isoproterenol at 10 μM. A digest of the protocol:
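Differentiated L6 myotubes stimulated 15 min with test compound or isoprenaline, each at final 1×10^−5 M, in HBSS with 1% BSA, 5 mM HEPES, 1 mM IBMX, pH 7.4. cAMP production by the compound expressed relative to that induced by the same concentration of isoprenaline.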
In general terms: cAMP levels reflect the balance of adenylyl cyclase and phosphodiesterase activity.

The subject of assay [2] is differentiated L6-myotubes. Kind of assay: Glucose uptake screen (Biological example 1 of WO 2019/053427). It is filed as cell-based. The conditions noted are these: compound at 10 μM, activity relative to isoproterenol at 10 μM, read-out: Biological example 1 of WO 2019/053427 (GU). A digest of the protocol: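 Rat L6 myoblasts were differentiated into myotubes over 7 days in 2% FBS, then serum-starved overnight. Cells were stimulated with 1×10^−5 M compound plus β2 antagonist ICI-118551 for 1 h 40 min and re-dosed for 20 min in glucose-free medium. Uptake of 50 nM ^3H-2-deoxyglucose over 10 min was counted after NaOH lysis.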

Some results are limits rather than exact numbers.

With `Cc1ncccc1[C@@H](O)CNC(C)(C)C` [Compound 376, (R)-2-(tert-butylamino)-1-(2-methyl-3-pyridyl)-1-ethanol], the Emax at 10 µM was 25 to 50% in assay [1] and > 75% in assay [2].
Regarding `COc1ccc(C[C@@H]2CC[C@H]([C@@H](O)c3cncc(F)c3)N2)cc1` [Compound 377, (S)-{(2R,5S)-5-[(p-methoxyphenyl)methyl]-2-pyrrolidinyl}(5-fluoro-3-pyridyl)methanol], the Emax at 10 µM was < 25% in assay [1] and > 75% in assay [2].
On the same counts, the results for `COc1ccc(C[C@@H]2CC[C@H]([C@H](O)c3cncc(F)c3)N2)cc1` [Compound 378, (R)-{(2R,5S)-5-[(p-methoxyphenyl)methyl]-2-pyrrolidinyl}(5-fluoro-3-pyridyl)methanol] are < 25% and > 75%.
With `COc1ccc(C[C@H]2CC[C@H]([C@H](O)c3cncc(F)c3)N2)cc1` [Compound 379, (R)-{(2R,5R)-5-[(p-methoxyphenyl)methyl]-2-pyrrolidinyl}(5-fluoro-3-pyridyl)methanol], the values for the Emax at 10 µM in assay [1] and in assay [2] were < 25% and > 75%, respectively.
On to `COc1ccc(C[C@H]2CC[C@H]([C@@H](O)c3cncc(F)c3)N2)cc1` [Compound 380, (S)-{(2R,5R)-5-[(p-methoxyphenyl)methyl]-2-pyrrolidinyl}(5-fluoro-3-pyridyl)methanol], for which the Emax at 10 µM in assay [1] was < 25%; in assay [2], > 75%.
On to `CC(C)(NC[C@H](O)c1cccc(F)c1)[C@H]1CC[C@H](N)CC1` [Compound 381, (R)-1-(m-fluorophenyl)-2-{1-methyl-1-[(1r,4R)-4-aminocyclohexyl]ethylamino}-1-ethanol], for which the Emax at 10 µM in assay [1] is < 25%; in assay [2] it was 50 to 75%.
As for `CC(C)(C[C@H]1CC[C@H](NS(C)(=O)=O)CC1)NC[C@H](O)c1cccc(F)c1` [Compound 382, (R)-2-{1,1-dimethyl-2-[(1r,4R)-4-(mesylamino)cyclohexyl]ethylamino}-1-(m-fluorophenyl)-1-ethanol], the Emax at 10 µM was 25 to 50% in assay [1] and > 75% in assay [2].
As to `CC(=O)N[C@H]1CC[C@H](CC(C)(C)NC[C@H](O)c2cccc(F)c2)CC1` [Compound 383, N-[(1R,4r)-4-{2-[(R)-2-(m-fluorophenyl)-2-hydroxyethylamino]-2-methylpropyl}cyclohexyl]acetamide], the Emax at 10 µM in assay [1] was 25 to 50%; in assay [2], > 75%.
As to `CC(C)(C[C@H]1CC[C@H](NC(=O)c2ccccc2)CC1)NC[C@H](O)c1cccc(F)c1` [Compound 384, N-[(1R,4r)-4-{2-[(R)-2-(m-fluorophenyl)-2-hydroxyethylamino]-2-methylpropyl}cyclohexyl]benzamide], the Emax at 10 µM in assay [1] and in assay [2] was > 75% throughout.
On to `CC(C)(NC[C@H](O)c1cccc(F)c1)[C@H]1CC[C@H](NS(C)(=O)=O)CC1` [Compound 385, (R)-1-(m-fluorophenyl)-2-{1-methyl-1-[(1r,4R)-4-(mesylamino)cyclohexyl]ethylamino}-1-ethanol], for which the Emax at 10 µM in assay [1] was < 25%; in assay [2], 50 to 75%.
Turning to `CC(=O)N[C@H]1CC[C@H](C(C)(C)NC[C@H](O)c2cccc(F)c2)CC1` [Compound 386, N-[(1R,4r)-4-{1-[(R)-2-(m-fluorophenyl)-2-hydroxyethylamino]-1-methylethyl}cyclohexyl]acetamide], the results for the Emax at 10 µM in assay [1] and in assay [2] were < 25% and > 75%, respectively.
Take `CC(C)(C)NC[C@H](O)c1cccc(C#N)n1` [Compound 387, 6-[(S)-2-(tert-butylamino)-1-hydroxyethyl]-2-pyridinecarbonitrile]: the Emax at 10 µM in assay [1] was 25 to 50%; in assay [2] it was > 75%.
The matching figures for `O[C@H](c1cccc(F)c1)C12CCC(Cc3ccccc3)(CC1)N2` [Compound 388, (R)-(4-benzyl-7-azabicyclo[2.2.1]hept-1-yl)(m-fluorophenyl)methanol]: 25 to 50% and > 75%.
In the case of `O[C@@H](c1cccc(F)c1)C12CCC(Cc3ccccc3)(CC1)N2` [Compound 389, (S)-(4-benzyl-7-azabicyclo[2.2.1]hept-1-yl)(m-fluorophenyl)methanol], the figures for the Emax at 10 µM in assay [1] and in assay [2] were < 25% and 50 to 75%, respectively.
`CC(C)(NC[C@H](O)c1cncc(F)c1)[C@H]1CC[C@H](C(=O)O)CC1` [Compound 390, (1R,4r)-8-[(R)-2-(5-fluoro-3-pyridyl)-2-hydroxyethylamino]-7-hydroxy-p-menthan-7-one]: the Emax at 10 µM in assay [1] is < 25%; in assay [2], 50 to 75%.
As for `O[C@@H](c1cccc(F)c1)[C@H]1CC[C@@H](Cc2ccc(Cl)cc2)N1` [Compound 391, (S)-{(2R,5S)-5-[(p-chlorophenyl)methyl]-2-pyrrolidinyl}(m-fluorophenyl)methanol], the Emax at 10 µM in assay [1] was < 25%; in assay [2], 50 to 75%.
For `O[C@H](c1cccc(F)c1)[C@H]1CC[C@@H](Cc2ccc(Cl)cc2)N1` [Compound 392, (R)-{(2R,5S)-5-[(p-chlorophenyl)methyl]-2-pyrrolidinyl}(m-fluorophenyl)methanol], the Emax at 10 µM in assay [1] was < 25%; in assay [2], > 75%.
As to `O[C@H](c1cccc(F)c1)[C@H]1CC[C@H](Cc2ccc(Cl)cc2)N1` [Compound 393, (R)-{(2R,5R)-5-[(p-chlorophenyl)methyl]-2-pyrrolidinyl}(m-fluorophenyl)methanol], the Emax at 10 µM is < 25% in assay [1] and > 75% in assay [2].
Take `O[C@@H](c1cccc(F)c1)[C@H]1CC[C@H](Cc2ccc(Cl)cc2)N1` [Compound 394, (S)-{(2R,5R)-5-[(p-chlorophenyl)methyl]-2-pyrrolidinyl}(m-fluorophenyl)methanol]: the Emax at 10 µM is < 25% in assay [1] and 50 to 75% in assay [2].
On the same counts, the results for `O[C@@H](c1cccc(F)c1)C12CCC(COCc3ccc(Cl)cc3)(CC1)N2` [Compound 395, (S)-(4-{[(p-chlorophenyl)methoxy]methyl}-7-azabicyclo[2.2.1]hept-1-yl)(m-fluorophenyl)methanol] are < 25% and 50 to 75%.
On to `O[C@H](c1cccc(F)c1)C12CCC(COCc3ccc(Cl)cc3)(CC1)N2` [Compound 396, (R)-(4-{[(p-chlorophenyl)methoxy]methyl}-7-azabicyclo[2.2.1]hept-1-yl)(m-fluorophenyl)methanol], for which the Emax at 10 µM in assay [1] is < 25%; in assay [2] it was > 75%.
The matching figures for `CC(C)(C)NC[C@H](O)c1cccc(C(F)(F)F)n1` [Compound 397, (S)-2-(tert-butylamino)-1-[6-(trifluoromethyl)-2-pyridyl]-1-ethanol]: < 25% and > 75%.
Regarding `CCOC(=O)CO[C@H]1CC[C@H](C(C)(C)NC[C@H](O)c2cccc(F)c2)CC1` [Compound 398, ethyl[(1R,4r)-4-{1-[(R)-2-(m-fluorophenyl)-2-hydroxyethylamino]-1-methylethyl}cycloehxyloxy]acetate], the Emax at 10 µM in assay [1] is < 25%; in assay [2] it was > 75%.
On the same counts, the results for `CC(C)(C[C@H]1CC[C@@H](C#N)CC1)NC[C@H](O)c1cccc(F)c1` [Compound 399, (1S,4s)-4-{2-[(R)-2-(m-fluorophenyl)-2-hydroxyethylamino]-2-methylpropyl)cyclohexanecarbonitrile] are 25 to 50% and > 75%.
`COc1ccc(CC23CCC([C@@H](O)c4cccc(F)c4)(CC2)N3)cc1` [Compound 400, (S)-(m-fluorophenyl)(4-[(p-methoxyphenyl)methyl]-7-azabicyclo[2.2.1]hept-1-yl}methanol]: the results for the Emax at 10 µM in assay [1] and in assay [2] were < 25% and 50 to 75%, respectively.
Turning to `COc1ccc(CC23CCC([C@H](O)c4cccc(F)c4)(CC2)N3)cc1` [Compound 401, (R)-(m-fluorophenyl){4-[(p-methoxyphenyl)methyl]-7-azabicyclo[2.2.1]hept-1-yl}methanol], the values for the Emax at 10 µM in assay [1] and in assay [2] were < 25% and > 75%, respectively.
Regarding `CC(C)(NC[C@H](O)c1cccc(F)c1)[C@H]1CC[C@H](OCC(=O)O)CC1` [Compound 402, [(1R,r)-4-{1-[(R)-2-(m-fluorophenyl)-2-hydroxyethylamino]-1-methylethyl}cyclohexyloxy]acetic acid], the Emax at 10 µM in assay [1] was < 25%; in assay [2], 50 to 75%.
For the compound `O[C@@H](c1cncc(F)c1)[C@H]1CC[C@@H](Cc2ccc(Cl)cc2)N1` [Compound 403, (S)-{(2R,5S)-5-[(p-chlorophenyl)methyl]-2-pyrroldiinyl}(5-fluoro-3-pyridyl)methanol], the Emax at 10 µM in assay [1] is < 25%; in assay [2], 50 to 75%.
For `O[C@H](c1cncc(F)c1)[C@H]1CC[C@@H](Cc2ccc(Cl)cc2)N1` [Compound 404, (R)-{(2R,5S)-5-[(p-chlorophenyl)methyl]-2-pyrrolidinyl}(5-fluoro-3-pyridyl)methanol], the Emax at 10 µM was < 25% in assay [1] and > 75% in assay [2].
On to `O[C@@H](c1cncc(F)c1)[C@H]1CC[C@H](Cc2ccc(Cl)cc2)N1` [Compound 405, (S)-{(2R,5R)-5-[(p-chlorophenyl)methyl]-2-pyrrolidinyl}(5-fluoro-3-pyridyl)methanol], for which the Emax at 10 µM in assay [1] was < 25%; in assay [2], > 75%.

(Values after US20260256751A1, “COMBINATION OF BETA-2-ADRENERGIC RECEPTOR AGONISTS AND GLP-1 RECEPTOR AGONISTS FOR USE IN TREATING HYPERGLYCAEMIA” (ATROGI AB, priority 2023, published 2026).)
